{
  "source": "paper PMC3266667",
  "about": "(Frontiers in Pharmacology, 2012)",
  "molecular_target": "hERG K+ channels (Homo sapiens, UniProt Q12809)",
  "sequence (Q12809 whole entry)": "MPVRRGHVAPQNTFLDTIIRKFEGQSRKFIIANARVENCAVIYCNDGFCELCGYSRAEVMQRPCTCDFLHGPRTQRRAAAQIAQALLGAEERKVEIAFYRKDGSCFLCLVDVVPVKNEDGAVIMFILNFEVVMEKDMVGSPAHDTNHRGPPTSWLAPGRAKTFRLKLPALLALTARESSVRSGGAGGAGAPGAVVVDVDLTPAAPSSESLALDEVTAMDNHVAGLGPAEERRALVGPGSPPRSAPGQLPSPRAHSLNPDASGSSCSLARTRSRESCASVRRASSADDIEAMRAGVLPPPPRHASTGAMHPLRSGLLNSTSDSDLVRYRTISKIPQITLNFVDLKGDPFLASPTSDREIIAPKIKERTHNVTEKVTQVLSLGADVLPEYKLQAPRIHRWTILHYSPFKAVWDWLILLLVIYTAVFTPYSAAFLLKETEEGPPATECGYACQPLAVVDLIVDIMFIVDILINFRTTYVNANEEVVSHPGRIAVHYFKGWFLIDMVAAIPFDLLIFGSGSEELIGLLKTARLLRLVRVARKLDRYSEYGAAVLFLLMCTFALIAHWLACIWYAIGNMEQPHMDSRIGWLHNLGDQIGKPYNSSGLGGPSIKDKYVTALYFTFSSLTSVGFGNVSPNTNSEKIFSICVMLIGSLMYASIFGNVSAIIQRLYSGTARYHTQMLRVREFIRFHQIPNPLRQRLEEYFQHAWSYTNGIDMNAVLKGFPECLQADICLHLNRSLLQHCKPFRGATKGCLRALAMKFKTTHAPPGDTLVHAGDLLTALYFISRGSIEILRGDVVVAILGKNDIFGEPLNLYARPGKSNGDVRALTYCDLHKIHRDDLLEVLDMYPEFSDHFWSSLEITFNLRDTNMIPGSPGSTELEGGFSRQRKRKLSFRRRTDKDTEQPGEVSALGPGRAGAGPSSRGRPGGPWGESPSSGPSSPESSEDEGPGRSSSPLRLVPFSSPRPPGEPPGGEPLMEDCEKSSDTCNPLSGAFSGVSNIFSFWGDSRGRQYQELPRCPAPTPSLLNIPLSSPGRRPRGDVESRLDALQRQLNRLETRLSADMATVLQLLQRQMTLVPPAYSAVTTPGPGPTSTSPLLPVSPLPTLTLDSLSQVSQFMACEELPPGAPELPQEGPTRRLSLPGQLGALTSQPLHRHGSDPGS",
  "key": {"[1]": {"details": "Patchliner, CHO-hERG cells, physiological temperature"}},
  "note": "Where two headings read alike, the source gives them in different places.",
  "data": [
    {"molecule": "CC(C)NCC(O)c1ccc(NS(C)(=O)=O)cc1", "note": "(racemic) [D,L-Sotalol]", "values": [
      {"measurement": "effect on the hERG current (in words)", "result": "intermediate effect on the hERG current"}
    ]},
    {"molecule": "C[C@H](CS)C(=O)N1CCC[C@H]1C(=O)O", "note": "[Captopril]", "values": [
      {"measurement": "effect on the hERG current (in words)", "setting": "[1]", "result": "did not affect the hERG current up to the highest concentration tested"}
    ]},
    {"molecule": "COc1cc(N)c(Cl)cc1C(=O)NC1CCN(CCCOc2ccc(F)cc2)CC1OC", "note": "(centres unmarked) [Cisapride]", "values": [
      {"measurement": "effect on the hERG current (in words)", "setting": "human", "result": "IC50 values in the low and mid-nanomolar range"}
    ]},
    {"molecule": "CC(C)Cc1ccc(C(C)C(=O)O)cc1", "note": "(centres unmarked) [Ibuprofen]", "values": [
      {"measurement": "effect on the hERG current (in words)", "setting": "[1]", "result": "did not affect the hERG current up to the highest concentration tested"}
    ]},
    {"molecule": "Cc1cc2c(s1)Nc1ccccc1N=C2N1CCN(C)CC1", "note": "[Olanzapine]", "values": [
      {"measurement": "effect on the hERG current (in words)", "result": "intermediate effect on the hERG current"}
    ]}
  ]
}
